From ChEMBL document CHEMBL5226380, “O-Alkylazoxymycins A-F, Naturally Occurring Azoxy-Aromatic Compounds from Streptomyces sp. Py50” (2023)
Values after ≈ are worked out from the molar mass of the structure shown. Counter-ions that a name gives are not always drawn.

Test system: Epidermophyton floccosum
Assay: Antifungal activity against Epidermophyton floccosum assessed as inhibition of fungal growth incubated for 24 hrs
Type: functional

O=C(O)CCCCCCc1ccccc1/N=[N+](\[O-])c1ccccc1CCCCC(=O)O
MIC50: 23.1 µM (≈ 9.85 µg/mL)

CN(C/C=C/C#CC(C)(C)C)Cc1cccc2ccccc12 [TERBINAFINE HYDROCHLORIDE]
MIC50: 0.003 µM

O=C(O)CCCCCCc1ccccc1/N=[N+](\[O-])c1ccccc1CCCCCCC(=O)O
MIC50: 51.2 µM (≈ 23.3 µg/mL)

O=C(O)CCCCCCc1ccccc1/[N+]([O-])=N/c1ccccc1CCCCC(=O)O
MIC50: 10.1 µM (≈ 4.31 µg/mL)
